Assay results reported in ChEMBL document CHEMBL5543149, “Discovery of Novel Aryl Triazolone Dihydropyridines (ATDPs) Targeting Highly Conserved Residue W229 as Promising HIV-1 NNRTIs” (J Med Chem, 2024).
≈ marks a conversion by molar mass, not a printed value.

Assays:
[1] = test system: Human immunodeficiency virus 1; test: Antiviral activity against NNRTI-resistant HIV-1 harboring Y188L mutant infected in human MT4 cells assessed as protection against virus-induced cytopathic effect by MTT assay; format: functional, organism-based; conditions: Human immunodeficiency virus 1, MT4
[2] = test system: Human immunodeficiency virus 1; test: Antiviral activity against wild type HIV-1 infected in mouse harboring L100I mutant at 10 mg/kg, po measured for 24 hrs; format: functional, organism-based; conditions: Human immunodeficiency virus 1, 24 h
[3] = AUC (0 to t ) in Sprague-Dawley rat at 10 mg/kg, po measured upto 24 hrs by LC-MS/MS analysis; format: ADME, organism-based; conditions: in vivo
[4] = test system: Human immunodeficiency virus 1; test: Antiviral activity against wild type HIV-1 infected in mouse harboring Y181C mutant at 10 mg/kg, po measured for 24 hrs; format: functional, organism-based; conditions: Human immunodeficiency virus 1, 24 h
[5] = AUC (0 to infinity) in Sprague-Dawley rat at 10 mg/kg, po measured upto 24 hrs by LC-MS/MS analysis; format: ADME, organism-based; conditions: in vivo
[6] = Subacute toxicity in Kunming mouse assessed as spleen damage at 50 mg/kg, po administered every 2 days for 2 weeks; format: organism-based; conditions: in vivo, 336 h
[7] = test system: Human immunodeficiency virus 1; test: Antiviral activity against NNRTI-resistant HIV-1 harboring K103N mutant infected in human MT4 cells assessed as protection against virus-induced cytopathic effect by MTT assay; format: functional, organism-based; conditions: Human immunodeficiency virus 1, MT4
[8] = test system: Human immunodeficiency virus 1; test: Antiviral activity against NNRTI-resistant HIV-1 harboring E138K mutant infected in human MT4 cells assessed as protection against virus-induced cytopathic effect by MTT assay; format: functional, organism-based; conditions: Human immunodeficiency virus 1, MT4
[9] = Subacute toxicity in Kunming mouse assessed as anorexia at 50 mg/kg, po administered every 2 days for 2 weeks; format: organism-based; conditions: in vivo, 336 h
[10] = Oral bioavailability in Sprague-Dawley rat at 10 mg/kg measured upto 24 hrs by LC-MS/MS analysis; format: ADME, organism-based; conditions: in vivo
[11] = test system: Human immunodeficiency virus 1; test: Antiviral activity against wild type HIV-1 infected in mouse harboring E138K mutant at 10 mg/kg, po measured for 24 hrs; format: functional, organism-based; conditions: Human immunodeficiency virus 1, 24 h
[12] = Subacute toxicity in Kunming mouse assessed as heart damage at 50 mg/kg, po administered every 2 days for 2 weeks; format: organism-based; conditions: in vivo, 336 h
[13] = Solubility of compound at pH 2 incubated for 2 hrs by HPLC analysis; format: physicochemical; conditions: buffer
[14] = Subacute toxicity in Kunming mouse assessed as clonic convulsion at 50 mg/kg, po administered every 2 days for 2 weeks; format: organism-based; conditions: in vivo, 336 h
[15] = Subacute toxicity in Kunming mouse assessed as lethargy at 50 mg/kg, po administered every 2 days for 2 weeks; format: organism-based; conditions: in vivo, 336 h
[16] = Tmax in Sprague-Dawley rat at 10 mg/kg, po measured upto 24 hrs by LC-MS/MS analysis; format: ADME, organism-based; conditions: in vivo
[17] = Subacute toxicity in Kunming mouse assessed as lung damage at 50 mg/kg, po administered every 2 days for 2 weeks; format: organism-based; conditions: in vivo, 336 h
[18] = Clearance in Sprague-Dawley rat at 2 mg/kg, iv measured upto 24 hrs by LC-MS/MS analysis; format: ADME, organism-based; conditions: in vivo
[19] = Subacute toxicity in Kunming mouse assessed as kidney damage at 50 mg/kg, po administered every 2 days for 2 weeks; format: organism-based; conditions: in vivo, 336 h
[20] = AUC (0 to t ) in Sprague-Dawley rat at 2 mg/kg, iv measured upto 24 hrs by LC-MS/MS analysis; format: ADME, organism-based; conditions: in vivo
[21] = Half life in Sprague-Dawley rat at 2 mg/kg, iv measured upto 24 hrs by LC-MS/MS analysis; format: ADME, organism-based; conditions: in vivo
[22] = Subacute toxicity in Kunming mouse assessed as ruffled fur at 50 mg/kg, po administered every 2 days for 2 weeks; format: organism-based; conditions: in vivo, 336 h
[23] = Cmax in Sprague-Dawley rat at 10 mg/kg, po measured upto 24 hrs by LC-MS/MS analysis; format: ADME, organism-based; conditions: in vivo
[24] = Tmax in Sprague-Dawley rat at 2 mg/kg, iv measured upto 24 hrs by LC-MS/MS analysis; format: ADME, organism-based; conditions: in vivo
[25] = test system: Human immunodeficiency virus 1; test: Antiviral activity against NNRTI-resistant HIV-1 harboring L100I mutant infected in human MT4 cells assessed as protection against virus-induced cytopathic effect by MTT assay; format: functional, organism-based; conditions: Human immunodeficiency virus 1, MT4
[26] = test system: Human immunodeficiency virus 1; test: Antiviral activity against wild type HIV-1 IIIB infected in human MT4 cells assessed as protection against virus-induced cytopathic effect incubated for 5 days by MTT assay; format: functional, organism-based; conditions: Human immunodeficiency virus 1, IIIB, MT4, 120 h
[27] = target: Human immunodeficiency virus type 1 reverse transcriptase (Human immunodeficiency virus 1, UniProt Q72547); test: Inhibition of wild type HIV-1 Reverse transcriptase assessed as reduction of biotin-dUTP incorporation into […] using ABTS as substrate preincubated with compound for 1 hr followed by substrate addition in presence of biotin-labeled dNTPs by ELISA analysis
[28] = test system: Human immunodeficiency virus 1; test: Antiviral activity against wild type HIV-1 infected in mouse at 10 mg/kg, po measured for 24 hrs; format: functional, organism-based; conditions: Human immunodeficiency virus 1, 24 h
[29] = Acute toxicity in Kunming mouse assessed as behavioral abnormalities at 2000 mg/kg, po measured for 7 days; format: organism-based; conditions: in vivo, 168 h, time 7 day
[30] = Subacute toxicity in Kunming mouse assessed as liver damage at 50 mg/kg, po administered every 2 days for 2 weeks; format: organism-based; conditions: in vivo, 336 h
[31] = Water solubility of compound at pH 7.4 incubated for 2 hrs by HPLC analysis; format: physicochemical
[32] = Selectivity index, ratio of CC50 for cytotoxicity against human MT4 cells assessed as reduction in cell viability by MTT assay to EC50 for antiviral activity against wild type HIV-1 IIIB infected in human MT4 cells assessed as protection against virus-induced cytopathic effect; format: toxicity, cell-based; conditions: read-out: Ratio CC50/EC50
[33] = Cytotoxicity against human MT4 cells assessed as reduction in cell viability by MTT assay; format: toxicity, cell-based
[34] = AUC (0 to infinity) in Sprague-Dawley rat at 2 mg/kg, iv measured upto 24 hrs by LC-MS/MS analysis; format: ADME, organism-based; conditions: in vivo
[35] = test system: Human immunodeficiency virus 1; test: Antiviral activity against wild type HIV-1 infected in mouse harboring […] mutant at 10 mg/kg, po measured for 24 hrs; format: functional, organism-based; conditions: Human immunodeficiency virus 1, 24 h
[36] = test system: Human immunodeficiency virus 1; test: Antiviral activity against NNRTI-resistant HIV-1 harboring RES056 mutant infected in human MT4 cells assessed as protection against virus-induced cytopathic effect by MTT assay; format: functional, organism-based; conditions: Human immunodeficiency virus 1, MT4
[37] = Cmax in Sprague-Dawley rat at 2 mg/kg, iv measured upto 24 hrs by LC-MS/MS analysis; format: ADME, organism-based; conditions: in vivo
[38] = Half life in Sprague-Dawley rat at 10 mg/kg, po measured upto 24 hrs by LC-MS/MS analysis; format: ADME, organism-based; conditions: in vivo
[39] = Acute toxicity in Kunming mouse assessed as change in body weight at 2000 mg/kg, po measured for 7 days; format: organism-based; conditions: in vivo, 168 h, time 7 day
[40] = test system: Human immunodeficiency virus 1; test: Antiviral activity against NNRTI-resistant HIV-1 harboring Y181C mutant infected in human MT4 cells assessed as protection against virus-induced cytopathic effect by MTT assay; format: functional, organism-based; conditions: Human immunodeficiency virus 1, MT4
[41] = Water solubility of compound at pH 7 incubated for 2 hrs by HPLC analysis; format: physicochemical
[42] = test system: Human immunodeficiency virus 1; test: Antiviral activity against wild type HIV-1 infected in mouse harboring K103N mutant at 10 mg/kg, po measured for 24 hrs; format: functional, organism-based; conditions: Human immunodeficiency virus 1, 24 h
[43] = test system: Human immunodeficiency virus 1; test: Antiviral activity against wild type HIV-1 infected in mouse harboring RES056 mutant at 10 mg/kg, po measured for 24 hrs; format: functional, organism-based; conditions: Human immunodeficiency virus 1, 24 h

Q: For `Cn1c(Cn2ccc(C(F)(F)F)c(Oc3cc(Cl)cc(-c4ccc(Br)cc4)c3)c2=O)n[nH]c1=O`, which EC50 [1] is on record?
A: The EC50 was 703 nM.

Q: And the EC50 [2]?
A: Its EC50 is 11 nM.

Q: And the AUC(0-t) at 24 h [3]?
A: The AUC(0-t) at 24 h was 39600 ng·h/mL.

Q: What about the EC50 [4] of the same molecule?
A: The EC50 was 16 nM.

Q: And the AUC(0-inf) [5]?
A: The AUC(0-inf) was 41800 ng·h/mL.

Q: And the Activity [6]?
A: Its Activity is “Non-Toxic”.

Q: What about the EC50 [7] of the same molecule?
A: Its EC50 is 13 nM.

Q: What about the EC50 [8] of the same molecule?
A: The EC50 was 13 nM.

Q: What about the Activity [9] of the same molecule?
A: Its Activity is “Non-Toxic”.

Q: And the bioavailability [10]?
A: Its bioavailability is 109%.

Q: What about the EC50 [11] of the same molecule?
A: The EC50 was 13 nM.

Q: What about the Activity [12] of the same molecule?
A: Its Activity is “Non-Toxic”.

Q: What about the solubility at 2 h [13] of the same molecule?
A: Its solubility at 2 h is 107 µg/mL (≈ 193 µM).

Q: And the Activity [14]?
A: Its Activity is “Non-Toxic”.

Q: What about the Activity [15] of the same molecule?
A: Its Activity is “Non-Toxic”.

Q: What about the Tmax [16] of the same molecule?
A: The Tmax was 4 h.

Q: And the Activity [17]?
A: Its Activity is “Non-Toxic”.

Q: What about the clearance [18] of the same molecule?
A: Its clearance is 4.35 mL/min/kg.

Q: What about the Activity [19] of the same molecule?
A: Its Activity is “Non-Toxic”.

Q: And the AUC(0-t) at 24 h [20]?
A: The AUC(0-t) at 24 h was 5490 ng·h/mL.

Q: What about the half-life [21] of the same molecule?
A: Its half-life is 4.49 h.

Q: And the Activity [22]?
A: Its Activity is “Non-Toxic”.

Q: And the Cmax [23]?
A: Its Cmax is 3340 ng/mL.

Q: What about the Tmax [24] of the same molecule?
A: Its Tmax is 3 min.

Q: What about the EC50 [25] of the same molecule?
A: The EC50 was 11 nM.

Q: And the EC50 [26]?
A: The EC50 was 9 nM.

Q: And the IC50 [27]?
A: The IC50 was 40 nM.

Q: And the EC50 [28]?
A: The EC50 was 9 nM.

Q: What about the Activity [29] of the same molecule?
A: Its Activity is “Non-Toxic”.

Q: What about the Activity [30] of the same molecule?
A: The Activity was “Non-Toxic”.

Q: What about the solubility at 2 h [31] of the same molecule?
A: The solubility at 2 h was 32.2 µg/mL (≈ 57.9 µM).

Q: What about the selectivity ratio [32] of the same molecule?
A: Its selectivity ratio is 13100.

Q: What about the CC50 [33] of the same molecule?
A: The CC50 was 118000 nM.

Q: What about the AUC(0-inf) [34] of the same molecule?
A: The AUC(0-inf) was 7670 ng·h/mL.

Q: What about the EC50 [35] of the same molecule?
A: The EC50 was 703 nM.

Q: And the EC50 [36]?
A: The EC50 was 59 nM.

Q: And the Cmax [37]?
A: The Cmax was 1950 ng/mL.

Q: What about the half-life [38] of the same molecule?
A: Its half-life is 5.09 h.

Q: What about the Activity [39] of the same molecule?
A: The Activity was “Non-Toxic”.

Q: And the EC50 [40]?
A: Its EC50 is 18 nM.

Q: And the solubility at 2 h [41]?
A: Its solubility at 2 h is 45.7 µg/mL (≈ 82.2 µM).

Q: And the EC50 [42]?
A: The EC50 was 13 nM.

Q: And the EC50 [43]?
A: Its EC50 is 56 nM.
